Active and inactive are the calls of the source. No rule for the calls is given here.
Test system: CCRIS mutagenicity, Ames/micronucleus/aberration tests
Test: CCRIS mutagenicity studies
[1] = Test System: AMES SALMONELLA TYPHIMURIUM, Strain/Indicator: TA97, Metabolic Activation: HAMSTER, LIVER, S-9, AROCLOR 1254 (10%), Method: PREINCUBATION
[2] = Test System: AMES SALMONELLA TYPHIMURIUM, Strain/Indicator: TA97, Metabolic Activation: NONE, Method: PREINCUBATION
[3] = Test System: AMES SALMONELLA TYPHIMURIUM, Strain/Indicator: TA97, Metabolic Activation: RAT, LIVER, S-9, AROCLOR 1254 (10%), Method: PREINCUBATION
[4] = Test System: AMES SALMONELLA TYPHIMURIUM, Strain/Indicator: TA98, Metabolic Activation: HAMSTER, LIVER, S-9, AROCLOR 1254 (10%), Method: PREINCUBATION
[5] = Test System: AMES SALMONELLA TYPHIMURIUM, Strain/Indicator: TA98, Metabolic Activation: NONE, Method: PREINCUBATION
[6] = Test System: AMES SALMONELLA TYPHIMURIUM, Strain/Indicator: TA98, Metabolic Activation: RAT, LIVER, S-9, AROCLOR 1254 (10%), Method: PREINCUBATION
[7] = Test System: AMES SALMONELLA TYPHIMURIUM, Strain/Indicator: TA100, Metabolic Activation: HAMSTER, LIVER, S-9, AROCLOR 1254 (10%), Method: PREINCUBATION
[8] = Test System: AMES SALMONELLA TYPHIMURIUM, Strain/Indicator: TA100, Metabolic Activation: NONE, Method: PREINCUBATION
[9] = Test System: AMES SALMONELLA TYPHIMURIUM, Strain/Indicator: TA100, Metabolic Activation: RAT, LIVER, S-9, AROCLOR 1254 (10%), Method: PREINCUBATION
[10] = Test System: AMES SALMONELLA TYPHIMURIUM, Strain/Indicator: TA1535, Metabolic Activation: HAMSTER, LIVER, S-9, AROCLOR 1254 (10%), Method: PREINCUBATION
[11] = Test System: AMES SALMONELLA TYPHIMURIUM, Strain/Indicator: TA1535, Metabolic Activation: NONE, Method: PREINCUBATION
[12] = Test System: AMES SALMONELLA TYPHIMURIUM, Strain/Indicator: TA1535, Metabolic Activation: RAT, LIVER, S-9, AROCLOR 1254 (10%), Method: PREINCUBATION

Measured: mutagenic call

CC(=O)Nc1ccc(N)cc1
active: [4] active; positive | [6] active; positive
inactive: [1] inactive; negative | [2] inactive; negative | [3] inactive; negative | [5] inactive; negative | [7] inactive; negative | [8] inactive; negative | [9] inactive; negative | [10] inactive; negative | [11] inactive; negative | [12] inactive; negative | Test System: Ames Salmonella typhimurium, Strain/Indicator: TA98, Metabolic Activation: None, Method: Standard Plate inactive; negative | Test System: Ames Salmonella typhimurium, Strain/Indicator: TA100, Metabolic Activation: None, Method: Standard Plate inactive; negative | Test System: Ames Salmonella typhimurium, Strain/Indicator: TA102, Metabolic Activation: None, Method: Standard Plate inactive; negative | Test System: Ames Salmonella typhimurium, Strain/Indicator: TA1535, Metabolic Activation: None, Method: Standard Plate inactive; negative | Test System: Ames Salmonella typhimurium, Strain/Indicator: TA1537, Metabolic Activation: None, Method: Standard Plate inactive; negative | Test System: UDS RODENT HEPATOCYTES, Strain/Indicator: THY INCORP (NON-S-PHASE), Metabolic Activation: NONE, Method: AUTORADIOGRAPHY inactive; negative

C=CCOC(=O)c1ccccc1C(=O)OCC=C
active: End Point: IN VITRO CHROMOSOMAL ABERRATIONS, Test System: CHO CELLS, Metabolic Activation: RAT, LIVER, S-9, AROCLOR 1254 active; positive; weak response
inactive: Test System: AMES SALMONELLA TYPHIMURIUM, Strain/Indicator: TA98, Metabolic Activation: HAMSTER, LIVER, S-9, AROCLOR 1254, Method: PREINCUBATION inactive; negative | [5] inactive; negative | Test System: AMES SALMONELLA TYPHIMURIUM, Strain/Indicator: TA98, Metabolic Activation: RAT LIVER S-9, PHENOBARBITAL AND BETA-NAPHTHOFLAVONE, Method: PREINCUBATION inactive; negative | Test System: AMES SALMONELLA TYPHIMURIUM, Strain/Indicator: TA98, Metabolic Activation: RAT, LIVER, S-9, AROCLOR 1254, Method: PREINCUBATION inactive; negative | Test System: AMES SALMONELLA TYPHIMURIUM, Strain/Indicator: TA100, Metabolic Activation: HAMSTER, LIVER, S-9, AROCLOR 1254, Method: PREINCUBATION inactive; negative | [8] inactive; negative | Test System: AMES SALMONELLA TYPHIMURIUM, Strain/Indicator: TA100, Metabolic Activation: RAT LIVER S-9, PHENOBARBITAL AND BETA-NAPHTHOFLAVONE, Method: PREINCUBATION inactive; negative | Test System: AMES SALMONELLA TYPHIMURIUM, Strain/Indicator: TA100, Metabolic Activation: RAT, LIVER, S-9, AROCLOR 1254, Method: PREINCUBATION inactive; negative | Test System: AMES SALMONELLA TYPHIMURIUM, Strain/Indicator: TA1535, Metabolic Activation: HAMSTER, LIVER, S-9, AROCLOR 1254, Method: PREINCUBATION inactive; negative | [11] inactive; negative | Test System: AMES SALMONELLA TYPHIMURIUM, Strain/Indicator: TA1535, Metabolic Activation: RAT LIVER S-9, PHENOBARBITAL AND BETA-NAPHTHOFLAVONE, Method: PREINCUBATION inactive; negative | Test System: AMES SALMONELLA TYPHIMURIUM, Strain/Indicator: TA1535, Metabolic Activation: RAT, LIVER, S-9, AROCLOR 1254, Method: PREINCUBATION inactive; negative | Test System: AMES SALMONELLA TYPHIMURIUM, Strain/Indicator: TA1537, Metabolic Activation: HAMSTER, LIVER, S-9, AROCLOR 1254, Method: PREINCUBATION inactive; negative | Test System: AMES SALMONELLA TYPHIMURIUM, Strain/Indicator: TA1537, Metabolic Activation: NONE, Method: PREINCUBATION inactive; negative | Test System: AMES SALMONELLA TYPHIMURIUM, Strain/Indicator: TA1537, Metabolic Activation: RAT LIVER S-9, PHENOBARBITAL AND BETA-NAPHTHOFLAVONE, Method: PREINCUBATION inactive; negative | Test System: AMES SALMONELLA TYPHIMURIUM, Strain/Indicator: TA1537, Metabolic Activation: RAT, LIVER, S-9, AROCLOR 1254, Method: PREINCUBATION inactive; negative | Test System: E.COLI, Strain/Indicator: WP2UVRA/PKM101, Metabolic Activation: NONE, Method: PREINCUBATION inactive; negative | Test System: E.COLI, Strain/Indicator: WP2UVRA/PKM101, Metabolic Activation: RAT LIVER S-9, PHENOBARBITAL AND BETA-NAPHTHOFLAVONE, Method: PREINCUBATION inactive; negative

O=P(OCCC(Br)CBr)(OCCC(Br)CBr)OCCC(Br)CBr (centres undefined)
inactive: Test System: AMES SALMONELLA TYPHIMURIUM, Strain/Indicator: TA100, Metabolic Activation: RAT, LIVER, MICROSOMES, PHENOBARBITAL, Method: PREINCUBATION inactive; negative | Test System: AMES SALMONELLA TYPHIMURIUM, Strain/Indicator: TA100, Metabolic Activation: RAT, LIVER, MICROSOMES, Method: PREINCUBATION inactive; negative

O=[N+]([O-])c1cc2cccc([N+](=O)[O-])c2c2ccccc12
active: Test System: AMES SALMONELLA TYPHIMURIUM, Strain/Indicator: TA98(1,8-DNP6), Metabolic Activation: NONE, Method: STANDARD PLATE active; positive | Test System: AMES SALMONELLA TYPHIMURIUM, Strain/Indicator: TA98(NR), Metabolic Activation: NONE, Method: STANDARD PLATE active; positive | Test System: AMES SALMONELLA TYPHIMURIUM, Strain/Indicator: TA98, Metabolic Activation: NONE, Method: STANDARD PLATE active; positive | Test System: AMES SALMONELLA TYPHIMURIUM, Strain/Indicator: TA100, Metabolic Activation: NONE, Method: STANDARD PLATE active; positive | Test System: AMES SALMONELLA TYPHIMURIUM, Strain/Indicator: YG1021, Metabolic Activation: NONE, Method: STANDARD PLATE active; positive | Test System: AMES SALMONELLA TYPHIMURIUM, Strain/Indicator: YG1024, Metabolic Activation: NONE, Method: STANDARD PLATE active; positive | Test System: AMES SALMONELLA TYPHIMURIUM, Strain/Indicator: YG1026, Metabolic Activation: NONE, Method: STANDARD PLATE active; positive | Test System: AMES SALMONELLA TYPHIMURIUM, Strain/Indicator: YG1029, Metabolic Activation: NONE, Method: STANDARD PLATE active; positive

Cc1ccc(N)c(N)c1
active: [3] active; positive | [4] active; positive | [6] active; positive | [7] active; positive | [9] active; positive
inactive: [1] inactive; negative | [2] inactive; negative | [5] inactive; negative | [8] inactive; negative | [10] inactive; negative | [11] inactive; negative | [12] inactive; negative

— PubChem BioAssay AID1259407 (Chemical Carcinogenesis Research Information System (CCRIS), 2018)
